The melting point is the temperature, or range, at which the solid turns liquid.

Counter-ions that a name gives are not always drawn.

`CN1CCN(CCOc2ccc3oc(-c4cc5ccccc5cn4)cc(=NO)c3c2)CC1` [Example 46, 2-isoquinolin-3-yl-6-[2-(4-methyl-piperazin-1-yl)-ethoxy]-chromen-4-one oxime] displayed a melting point of 233 to 236 °C.
On to `Cc1cc2c(=NO)cc(-c3cc4ccccc4cn3)oc2cc1C#Cc1ccccc1` [Example 25], for which the melting point lay within 248 to 250 °C.
Turning to `ON=c1cc(-c2cc3ccc(Cl)cc3cn2)oc2ccccc12` [Example 16, 2-(7-chloro-isoquinolin-3-yl)-chromen-4-one oxime], the melting point lay in the range of 260 to 261 °C.
`ON=c1cc(-c2cc3ccc(O)cc3cn2)oc2ccccc12` [Example 60, 2-(7-hydroxy-isoquinolin-3-yl)-chromen-4-one oxime]: the melting point fell in the range of 248 to 250 °C.
As for `Cl.ON=c1cc(-c2cc3sccc3cn2)oc2ccc(OCCN3CCCOCC3)cc12`, the figure is 223 to 226 °C.
As for `COc1ccc2cc(-c3cc(=NO)c4ccccc4o3)ncc2c1` [Example 13, 2-(7-methoxy-isoquinolin-3-yl)-chromen-4-one oxime], the melting point was in the range of 239 to 241 °C.
Next, `ON=c1cc(-c2cc3sccc3cn2)oc2ccc(OCCc3ccc(F)cc3)cc12` (as salt: hydrochloride) [Example 130, 6-[2-(4-Fluoro-phenyl)-ethoxy]-2-thieno[3,2-c]pyridin-6-yl-chromen-4-one oxime]: 228 to 234 °C; `ON=c1cc(-c2cc3ccccc3cn2)oc2cc(C#Cc3ccccc3Cl)ccc12` [Example 32, 7-(2-chlorophenyl)ethynyl-2-isoquinolin-3-yl-chromen-4-one oxime]: 292 to 297 °C.
Next, `ON=c1cc(-c2cc3ccccc3cn2)oc2cc(-c3ccc(-c4ccccc4)cc3)ccc12` [Example 48, 7-(4-biphenyl)-2-isoquinolin-3-yl-chromen-4-one oxime]: 283 to 285 °C.
As for `Cl.NCCOc1ccc2oc(-c3cc4cccn4cn3)cc(=NO)c2c1`, the figure is > 270 °C (dec.); as for `Nc1cccc(C#Cc2ccc3c(=NO)cc(-c4cc5ccccc5cn4)oc3c2)c1` [Example 29, 7-(3-aminophenyl)ethynyl-2-isoquinolin-3-yl-chromen-4-one oxime], 272 to 275 °C; as for `ON=c1cc(-c2cc3cccn3cn2)oc2ccc(OCCn3ccnc3)cc12` (as salt: sodium) [Example 105, 6-(2-imidazol-1-O-ethoxy)-2-pyrrolo[1,2-c]pyrimidin-3-yl-chromen-4-one oxime], > 250 °C (dec.).
The molecule `ON=c1cc(-c2cc3ccccc3cn2)oc2cccc(F)c12` [Example 9] displayed a melting point of 275 to 278 °C.
With `CN(C)CCCOc1ccc2oc(-c3cc4cccn4cn3)cc(=NO)c2c1.Cl`, the melting point was > 270 °C (dec.).
As for `COc1cccc2cnc(-c3cc(=NO)c4ccccc4o3)cc12` [Example 19, 2-(5-methoxy-isoquinolin-3-yl)-chromen-4-one oxime], the figure is 245 to 247 °C; as for `ON=c1cc(-c2cc3cc[nH]c3cn2)oc2ccccc12` [Example 75, 2-(1H-Pyrrolo[2,3-c]pyridin-5-yl)-chromen-4-one oxime], 270 to 275 °C (dec.); as for `ON=c1cc(-c2ncc3ccccc3n2)oc2ccccc12` [Example 110, 2-quinazolin-2-yl-chromen-4-one oxime], 239 to 241 °C.
`Cc1cc2c(=NO)cc(-c3cc4ccccc4cn3)oc2cc1Br` [Example 3, 7-bromo-2-isoquinolin-3-yl-6-methyl-chromen-4-one oxime] returned a melting point of 267 to 270 °C.
Molecule `CN1CCN(CCCNc2ccc3oc(-c4cc5ccccc5cn4)cc(=NO)c3c2)CC1` [Example 45, 2-isoquinolin-3-yl-6-[3-(4-methyl-piperazin-1-yl)-propylamino]-chromen-4-one oxime] registered a melting point of 208 to 211 °C.
As for `Cl.ON=c1cc(-c2cc3cccn3cn2)oc2ccc(OCCNC3CCCC3)cc12`, the figure is > 230 °C (dec.).
